Patent US20090259043A1, “TRICYCLIC CYTOPROTECTIVE COMPOUNDS” (HUNTER-FLEMING LIMITED, priority 2005, published 2009)

Tests used:
[1] = system: organotypic hippocampal slice cultures; assay: Neuroprotection against hypoxia in organotypic hippocampal slice cultures (PI fluorescence in CA1); format: cell-based, Wistar rat; conditions: vs control (hypoxia only = 100% damage); 180 min hypoxia; compound present 45 min pre-hypoxia, during and 24 h post-hypoxia; PI fluorescence area in CA1
Experimental: Organotypic hippocampal slice cultures were prepared using the basic method of Pringle et al [Brain Res. 755, 36-46 (1997)] modified as follows:
Wistar rat pups (8-11 days old) were decapitated and the hippocampus rapidly dissected into ice-cold Gey's balanced salt solution supplemented with 4.5 mg/ml glucose. Slices were separated and plated onto Millicell CM culture inserts (4 per well) and maintained at 37° C./5% CO2 for 14 days. Maintenance medium consisted of 25% heat-inactivated horse serum, 25% Hank's balanced salt solution (HBSS) and 50% minimum essential medium with added Earle's salts (MEM) supplemented with 1 mM glutamine and 4.5 mg/ml glucose. Medium was changed every 3-4 days.
Experimental hypoxia was performed as described previously (Pringle et al., Stroke 27, 21-24 (1996)& Brain Res. 755, 36-46 (1997)]. Briefly, cultures were transferred to serum free medium (SFM-75% MEM, 25% HBSS supplemented with 1 mM glutamine and 4.5 mg/ml glucose) containing 5 μg/ml of the fluorescent exclusion dye propidium iodide (PI). Cultures were allowed to equilibrate in SFM for 60 minutes prior to imaging. PI fluorescence was detected using a Leica DMIL inverted microscope fitted with a rhodamine filter set. Any cultures in which PI fluorescence was detected at this stage were excluded from further study. Hypoxia was induced by transferring cultures to SFM (+PI) which had been saturated with 95% N2/5% CO2. Culture plates (without lids) were then sealed into an airtight chamber in which the atmosphere was saturated with 95% N2/5% CO2 by continuously blowing through gas at 10 L/minute for ten minutes before being sealed and placed in the incubator for 170 minutes (total time of hypoxia was therefore 180 minutes). At the end of the hypoxic period cultures were returned to normoxic SFM containing PI and placed back in the incubator for 24 hours.
Neuronal damage was assessed using ImageJ running on a PC. Images were captured using a CCD camera and saved for offline analysis. Light transmission images were captured prior to the addition of drugs, and PI fluorescence images recorded at the end of the 24-hour post-hypoxia recovery period. The area of the CA1 sub-region was determined from the transmission image. The area of PI fluorescence in the CA1 was measured using the threshold function on ImageJ, and neuronal damage expressed as the percentage of the CA1 in which PI fluorescence was detected above background.
Unpaired Student's t-tests were employed to ascertain statistical significance.
A series of compounds were examined for possible neuroprotection against hypoxia in organotypic hippocampal slice cultures. Compounds No. 4, 6, 7, 8, 10, 14, 15, 16, 17, 20, 21, 22 and 23 were dissolved in DMSO to a concentration of 1 mg/ml.
7β-hydroxy-epiandrosterone (7β-OH EPIA), a neuroprotective compound, at 100 nM concentrations, was employed as a positive control. A stock solution of 1 mg/ml was dissolved in ethanol. Final dilutions were made in SFM.
The efficacy of all compounds was assessed using a pre-during and post-hypoxia paradigm—compounds were present in the medium 45 minutes pre-hypoxia, the 3 hours of hypoxia and 24 hours post-hypoxia.

Row | Compound | melting point | % damage in hypoxia model with compound [1] [%]
1 | Cc1ccc(C)c2c3c([nH]c12)CCC(O)C3 (stereo not drawn) | 158 to 161 °C | 
2 | Cc1ccc(C)c2c3c([nH]c12)CC(C(=O)O)CC3 (stereo not drawn) | 228 to 230 °C | 
3 | OC1CCc2[nH]c3ccccc3c2C1 (stereo not drawn) [Compound No. 4, 2,3,4,9-Tetrahydro-1H-carbazol-3-ol] |  | 58
4 | c1ccc2c3c([nH]c2c1)CCC1(C3)OCCO1 [Compound No. 6, 1,2,4,9-Tetrahydro-spiro[carbazole-3,2′-[1,3-dioxolane]] |  | 63
5 | O=C1CCc2[nH]c3ccccc3c2C1 [Compound No. 7, 1,2,4,9-Tetrahydro-3H-carbazol-3-one] |  | 70
6 | O=C1CCc2[nH]c3ccccc3c21 [Compound No. 8, 3,4-dihydrocyclopenta[b]indol-1 (2H)-one] |  | 59
7 | Cc1ccc2c3c([nH]c2c1C)CCC(O)C3 (stereo not drawn) [Compound No. 10, 7,8-Dimethyl-2,3,4,9-tetrahydro-1H-carbazol-3-ol] | 192 to 195 °C | 76
8 | COc1ccc2[nH]c3c(c2c1)CS(=O)(=O)CC3 [Compound No. 12, 8-Methoxy-1,3,4,5-tetrahydrothiopyrano[43-b]indole 2,2-dioxide] | 283 to 286 °C (dec.) | 
9 | O=C(O)c1ccc2[nH]c3c(c2c1)CCCC3=O [Compound No. 14, 1-Oxo-2,3,4,9-tetrahydro-1H-carbazole-6-carboxylic acid] |  | 53
10 | COc1ccc2[nH]c3c(c2c1)CCC(C(=O)O)C3 (stereo not drawn) [Compound No. 15, 6-Methoxy-2,3,4,9-tetrahydro-11H-carbazole-2-carboxylic acid] |  | 65
11 | COc1ccc2[nH]c3c(c2c1)CCC3 [Compound No. 17, 7-Methoxy-1,2,3,4-tetrahydrocyclopenta[b]indole] | 128 to 130 °C | 35
12 | O=C(O)c1ccc2[nH]c3c(c2c1)CCC3 [Compound No. 18, 1,2,3,4-Tetrahydrocyclopenta[b]indole-7-carboxylic acid] | 270 to 274 °C | 
13 | O/N=C1\CCCc2[nH]c3ccccc3c21 [Compound No. 20, (4E)-1,2,3,9-Tetrahydro-4H-carbazol-4-one oxime] |  | 54
14 | O/N=C1\CCc2[nH]c3ccccc3c2C1 [Compound No. 21, (3E)-1,2,4,9-Tetrahydro-3H-carbazol-3-one oxime] | 173 to 175 °C (dec.) | 40
15 | COc1ccc2[nH]c3c(c2c1)CC1(CC3)OCCO1 [Compound No. 22] | 168 to 169 °C | 75
16 | COc1ccc2[nH]c3c(c2c1)CCCC3 [compound 16, Methyl 2,3,4,9-tetrahydro-1H-carbazol-6-yl ether] |  | 60
17 | COc1ccc2[nH]c3c(c2c1)CC(=O)CC3 [compound 23, 6-Methoxy-1,2,4,9-tetrahydro-3H-carbazol-3-one] |  | 57
